Counter-ions that a name gives are not always drawn.
What was measured:
[1] = tested on: Isolated Rat Bladder Strips; test: Inhibition of contractions in isolated rat bladder strips (KCl-enhanced contractile activity); design: species or system Sprague-Dawley rats; details: 0.5 h, 15 mM KCl added, contractile activity measured in last minute of 30 minute challenge
Method: Sprague-Dawley rats (150-200 g) are rendered unconscious by CO2 asphyxiation and then euthanized by cervical dislocation. The bladder is removed into warm (37° C.) physiological salt solution (PSS) of the following composition (mM): NaCl, 118.4; KCI, 4.7; CaCl2, 2.5; MgSO4, […]; NaHCO3, 24.9; KH2PO4, 1.2; glucose, 11.1; EDTA, 0.023; gassed with […]; pH 7.4. The bladder is opened and then cut into strips 1-2 mm in width and 7-10 nmm in length. The strips are subsequently suspended in a 10 mL tissue bath under an initial resting tension of 1.5 g. The strips are held in place by two surgical clips one of which is attached to a fixed hook while the other is attached to an isometric force transducer. […] The carbachol is then washed out and the tissue allowed to relax to its resting level of activity. Following a further 30 min period of recovery an additional 15 mM KCl are introduced into the tissue bath. This increase in KCl concentration results in a large increase in the amplitude of spontaneous contractions (and initiation of contractions in previously quiescent strips) superimposed upon a small increase in basal tone. Following stabilization of this enhanced level of contractile activity, incremental increases in the concentration of test compound or vehicle are introduced into the tissue bath. Contractile activity is measured for each compound or vehicle concentration during the last minute of a 30 minute challenge.
The isometric force developed by the bladder strips is measured using a […] to elicit 50% inhibition of pre-drug contractile activity (IC50 concentration) and is calculated from this concentration-response curve.

[2] = tested on: hypertrophied bladder (detrusor) smooth muscle; test: Inhibition of spontaneous contractions in vivo, hypertrophied rat bladder model (cystometry); design: species or system Female Sprague-Dawley rats; details: 10 mg/kg p.o., cystometry one hour after dosing
Method: In addition, we tested the ability of compounds to inhibit the hyperactivity of hypertrophied bladder (detrusor) smooth muscle in conscious female rats with hypertrophied bladders and thereby alleviate urinary incontinence in rats according to the following protocol described by Malmgren et al. (J. Urol. 1989, 142, 1134.):
Female Sprague-Dawley rats, ranging in weight from 190-210 g are used. Up to 25 animals are prepared each time. After development of bladder hypertrophy 4-8 animals are used per test.
Compounds are dissolved in PEG-200 and administered by gastric gavage or intravenously in a volume of 5 mL/kg. For primary screening all drugs are administered at the arbitrary dose of 10 mg/kg p.o. to groups of 4 rats.
The animals are anesthetized with halothane. Through a midline incision the bladder and urethra are exposed and a ligature of 4-0 silk is tied around the proximal urethra in the presence of a stainless steel rod (1 mm diameter) to produce a partial occlusion. […] The following urodynamic variables are recorded: […]
The mean value of each variable is calculated before and after compound administration. For each compound the changes in the variables measured are compared to the values obtained before treatment and expressed as percent inhibition. The data are also subjected to 2-way analysis of variance to determine significant (p<0.05) changes in the variable measured. […]

melting point [°C]	IC50 [1] [µM]	SMILES	% Red (F): percent reduction in the total number of spontaneous contractions [2] [%]
	13.5	Cc1nn(C)c(NCC(C)(C)C)c1NCc1ccc(F)cc1F [Example 6, N(4)-(2,4-Difluoro-benzyl)-N(3)-(2,2-dimethyl-propyl)-2,5-dimethyl-2H-pyrazole-3,4-diamine]	
	15.4	Cc1nn(C)c(NCC(C)(C)C)c1NCc1cccnc1 [Example 7, N(3)-(2,2-Dimethyl-propyl)-2,5-dimethyl-N(4)-pyridin-3-ylmethyl-2H-pyrazole-3,4-diamine]	
114 to 120	17.8	Cc1cc(C)c(CNc2c(C)nn(C)c2NCC(C)(C)C)c(C)c1 [Example 8, N(3)-(2,2-Dimethyl-propyl)-2,5-dimethyl-N(4)-(2,4,6-trimethyl-benzyl)-2H-pyrazole-3,4-diamine]	
	19.2	CCC(C)(C)CNc1c(NCc2ccncc2)c(C)nn1C [Example 9, N(3)-(2,2-Dimethyl-butyl)-2,5-dimethyl-N(4)-pyridin-4-ylmethyl-2H-pyrazole-3,4-diamine]	
	19.9	CCC(C)(C)CNc1c(NCc2ccccc2)c(C)nn1C [Example 10, N(4)-Benzyl-N(3)-(2,2-dimethyl-butyl)-2,5-dimethyl-2H-pyrazole-3,4-diamine]	
	4.3	Cc1nn(C)c(NCC(C)(C)C)c1Nc1ccccc1 [Example 11, N(3)-(2,2-Dimethyl-propyl)-2,5-dimethyl-N(4)-phenyl-2H-pyrazole-3,4-diamine]	
	12.5	Cc1cc(Cl)ccc1Nc1c(C)nn(C)c1NCC(C)(C)C [Example 12, N(4)-(4-Chloro-2-methyl-phenyl)-N(3)-(2,2-dimethyl-propyl)-2,5-dimethyl-2H-pyrazole-3,4-diamine]	
131 to 134	17.9	Cc1nn(C)c(NCC(C)(C)C)c1Nc1ccc(C#N)cc1 [Example 13, 4-[5-(2,2-Dimethyl-propylamino)-1,3-dimethyl-1H-pyrazol-4-ylamino]-benzonitrile]	
	22.9	Cc1nn(C)c(NCC(C)(C)C)c1Nc1ccc(Cl)cc1 [Example 14, N(4)-(4-Chloro-phenyl)-N(3)-(2,2-dimethyl-propyl)-2,5-dimethyl-2H-pyrazole-3,4-diamine]	

Continued, compound first:

SMILES	melting point [°C]	IC50 [1] [µM]	% Red (F): percent reduction in the total number of spontaneous contractions [2] [%]
Cc1nn(C)c(NCC(C)(C)C)c1NCc1ccc(C#N)cc1 (as salt: tosylate) [Example 2, 4-{[5-(2,2-Dimethyl-propylamino)-1,3-dimethyl-1H-pyrazol-4-ylamino]-methyl}-benzonitrile]	102 to 104		
Cc1nn(C)c(NCC(C)(C)C)c1NCc1ccncc1 [Example 1, N(3)-(2,2-Dimethyl-propyl)-2,5-dimethyl-N(4)-pyridin-4-ylmethyl-2H-pyrazole-3,4-diamine]	88 to 90	4.9	−36 ± 7
Cc1nn(C)c(NCC(C)(C)C)c1NCc1ccc(C#N)cc1 [Example 2, 4-{[5-(2,2-Dimethyl-propylamino)-1,3-dimethyl-1H-pyrazol-4-ylamino]-methyl}-benzonitrile]		8.26	
Cc1nn(C)c(NCC(C)(C)C)c1NCc1ccc(F)cc1 [Example 3, N(3)-(2,2-Dimethyl-propyl)-N(4)-(4-fluoro-benzyl)-2,5-dimethyl-2H-pyrazole-3,4-diamine]	32 to 39	11.5	
Cc1nn(C)c(NCC(C)(C)C)c1NCc1ccc(Cl)cc1Cl [Example 4, N(4)-(2,4-Dichloro-benzyl)-N(3)-(2,2-dimethyl-propyl)-2,5-dimethyl-2H-pyrazole-3,4-diamine]		11.8	
CCC(C)(C)CNc1c(NCc2ccc(C#N)cc2)c(C)nn1C [Example 5, 4-{[5-(2,2-Dimethyl-butylamino)-1,3-dimethyl-1H-pyrazol-4-ylamino]-methyl}-benzonitrile]		12.6	
